Measurements published in patent publication US20260146232A1, “METHODS FOR PROMOTING HOMING AND ENGRAFTMENT OF HEMATOPOIETIC STEM CELLS” (The Trustees of Indiana University, priority 2022, published 2026).

How the values were obtained:
[1] = tested on: human CB CD34+ cells; test: Long-term engraftment / limiting dilution analysis (LDA) in NSG mice; assay type: in vivo
Method: Limiting dilution analysis (LDA). Frequency of human SCID repopulating cells (SRCs) was determined by LDA as reported before. Increasing doses of GFP overexpressing CD34^+ cells (2500, 5000 or 10000 cells) were intravenously injected into sublethally irradiated NSG recipient mice (350 cGy; 137Cs source, single dose). Four months after transplantation, the percentage of GFP^+ human CD45^+ cell chimerism was analyzed by immunostaining and flow cytometry. For long-term engraftment assays that assess the self-renewal capacity of HSC, 3×10^6 BM cells from primary recipients of the 10000-cell group were intravenously transplanted into secondary sub-lethally irradiated NSG recipient mice.

[2] = tested on: CXCR4; test: Surface CXCR4 protein level (MFI) by flow cytometry; assay type: cell-based, human; conditions: for CXCR4 protein level: siRNA knockdown
From the text: (§1) Human CD34^+ CB cell collection and culture. Umbilical CB units were supplied by Cleveland Cord Blood Bank and CordUse, Orlando, FL, USA. All studies were approved by the institutional review board of the IUSM. Mononuclear cells were isolated by density gradient centrifugation and CD34^+ cells were isolated by immunomagnetic selection kit (Miltenyi Biotec, 130-046-702). […] For molecular compound treatment, all reagents were ordered from Cayman Chemical (Ann Arbor, MI, USA). Briefly, molecular compounds were added in the initiation of human CB CD34^+ cells culture, the time and concentration of each molecular compound for cell treatment was shown in figure legends.
Flow cytometry. Fresh or cultured CB cells were sorted for different phenotypes by using the following antibodies. Antibodies were used to detect CD34 (BV786, BD Biosciences, 744741), CD34 (FITC, BD Biosciences, 340668), CD45RA (Taxe-red, BD Biosciences, 562298), CD90 (BV421, BD Biosciences, 562556), CD49f (cy5.5, BD Biosciences, 562495), CD38 (PE, BD Biosciences, 560981). CD3 (BV421, BD Biosciences, 562427), CD33 (PE, BD Biosciences, 555450), CD19 (PE, BD Biosciences, 555413), CXCR4 (APC, BD Biosciences, 555976) and CD45 (APC, BD Biosciences, 555485). Gating strategy of phenotypic HSCs were shown in supplementary FIG. 2B.

[3] = tested on: CXCR4; test: CXCR4 RNA level in human CB CD34+ cells; assay type: cell-based; conditions: YTHDF2 knockdown by siRNA
Method: (§2) RNA extraction and real-time PCR. After cells were harvested by FACS, RNA was extracted by a RNeasy Mini Kit following manufacturer's protocol (Qiagen, 74106). Total RNA was reverse-transcribed by use of Superscript III kit (ThermoFisher, 18080093). Quantitative real-time PCR reactions were performed by SYBR Green PCR Master Mix (Thermo Fisher, Florence, KY, USA) and an Agilent Mx3000P QPCR System. Expression of housekeeping gene GAPDH was used as an internal control. Data are shown as relative mRNA level normalized to levels in vehicle control, set to 1. SEQ ID NO: 1-16 are the primer sequences utilized.

[4] = tested on: YTHDF2 and CXCR4; test: YTHDF2 binding level of CXCR4 (YTHDF2 RIP combined with RT-qPCR); assay type: cell-based, human
Method: RNA immunoprecipitation. RNA immunoprecipitation was performed as previously described^14. Briefly, 0.5-1×10^6 collected human CD34^+ cells were lysed in buffer A (20 mM Tris-Cl, pH 8.0; 100 mM NaCl, 1 mM EDTA, 0.5% NP-40, protease and RNase inhibitors) for 20 min at 4° C. After centrifugation for 5 min, 1/10th volume of cell lysate was saved as input. Anti-YTHDF2 (Abcam, ab220163) was prebound to the protein A/G beads and then reacted with the rest of the cell lysate overnight at 4° C. After elution from the beads, the RNA samples were precipitated with ethanol and dissolved in RNase-free water. RNAs were further purified with RNA Clean and Concentrator-5 (Zymo, R1013). The relative CXCR4 enrichment was determined by calculating the Ct values of the RIP sample relative to the input sample. Expression of non-m6a housekeeping gene ACTB was used as an internal control. Data are shown as relative binding level normalized to levels in sh-Control group, set to 1.

[5] = tested on: human CB CD34+ cells; test: Chemotaxis (transwell migration) assay toward SDF-1, CB CD34+ cells; assay type: cell-based
Method: (§3) Chemotaxis assay. Chemotaxis assays were performed in Costar 24-well trans-well plates with 6.5 mm diameter inserts with 5.0 μm pores (Corning, NY, USA). Briefly, 650 μL of IMDM medium (37° C.) that contained 0.5% bovine serum albumin (Sigma-Aldrich) and SDF-1 (0, 50 ng/mL) was added to the bottom well. Cells were suspended at 1×10^5 cells/100 μL in IMDM medium and loaded to the upper chamber of the trans-well. Trans-well plates were placed in a 37° C. incubator with 95% humidity and 5% CO2 for 4 hours. Percent migration was measured using flow cytometry with number of cells in the bottom chamber divided by number of cells placed in the upper chamber. To calculate the percent migration of CB HSCs, phenotypic HSCs was determined by surface staining and flow cytometry analysis. Human CB HSC chemotaxis was calculated as number of HSCs in the bottom chamber divided by number of HSCs loaded in the upper chamber. For AMD3100 administration, cells were treated with 5 μg/mL AMD3100 (239820, Sigma-Aldrich) for 30 min right before the chemotaxis assay.

[6] = tested on: phenotypic HSC (CD34+ CD38- CD45RA- CD90+ CD49f+); test: Chemotaxis (transwell migration) assay toward SDF-1, phenotypic HSCs; assay type: cell-based, human
Method: as §3

[7] = tested on: m6A labelled CXCR4; test: m6A enrichment on CXCR4 (m6A IP combined with RT-qPCR); assay type: cell-based, human
Method: M6A-RNA Immunoprecipitation. MeRIP analysis was used as previously described^15. Briefly, the total RNAs were extracted, and then RNA concentration was adjusted to 1 μg/μl. RNA was fragmented into ˜100 nt size and these RNA were immunoprecipitated with the anti-m6A antibody according to the standard protocol of the Magna MeRIP m6A Kit (Merck Millipore, 17-10499). M6A enrichment was determined by qPCR analysis.

[8] = tested on: human CB CD34+ cells; test: Homing assay of treated human CB CD34+ cells in NSG mice; assay type: in vivo; conditions: 500,000 cells
Method: Homing assay. Homing of human CB CD34^+ cells was evaluated in NSG mice. Molecular compounds treated or siRNA transfected human CB CD34+ cells (500,000 for each mouse) were intravenously injected into sub-lethally irradiated (350 cGy) NSG mice. After 24 h, these recipient mice were sacrificed, BM cells from each mouse were collected. Cells were stained with anti-human CD45 antibody, then resuspended in 1% formaldehyde buffer. Flow cytometry analysis was performed to determine the percentage of human CD45^+ cells. BM cells from non-transplanted NSG mice served as negative controls.

[9] = tested on: YTHDF2; test: Relative YTHDF2 expression level in human CB CD34+ cells; assay type: cell-based; conditions: siRNA 2 μM electroporated into human CB CD34+ cells
From the text: as §1
as §2, with “1.” for “1. SEQ ID NO: 1-16 are the primer sequences utilized.”

[10] = tested on: CB CD34+ cells; test: Colony-forming unit (CFU) assay; assay type: cell-based, human; conditions: AGII-treated CB CD34+ cells
[11] = tested on: FTO; test: Relative FTO expression level by realtime PCR; assay type: cell-based; conditions: AGII 4 μM, 20 hours, human CB CD34+ cells
Method: Human CD34^+ CB cell collection and culture. Umbilical CB units were supplied by Cleveland Cord Blood Bank and CordUse, Orlando, FL, USA. All studies were approved by the institutional review board of the IUSM. Mononuclear cells were isolated by density gradient centrifugation and CD34^+ cells were isolated by immunomagnetic selection kit (Miltenyi Biotec, 130-046-702). The purity of human CD34^+ CB cells was over 90% and the cells were cultured in StemSpanII serum-free medium ([…] Technologies, 09650) supplemented with 100 ng/mL stem cell factor (SCF), 100 ng/mL FMS-like tyrosine kinase 3 ligand (Flt3L) and 100 ng/mL thrombopoietin (TPO). For molecular compound treatment, all reagents were ordered from Cayman Chemical (Ann Arbor, MI, USA). Briefly, molecular compounds were added in the initiation of human CB CD34^+ cells culture, the time and concentration of each molecular compound for cell treatment was shown in figure legends.
as §2, with “Expression of housekeeping gene GAPDH was used as an internal control. Data are shown as relative mRNA level normalized to levels in vehicle control, set to 1. SEQ ID NO: 1-16 are the primer sequences utilized.” left out

[12] = AGII-treated human CB CD34+ cells

Substance: 5′-TTGGCTATTGGGAACGTCCTT-3′ (partner strand not given here) [siRNA]
- engraftment in secondary NSG mice ([1]; BM cells from siRNA transfected group): enhanced engraftment
- increase in number of functionally detectable SRCs compared with control ([1]; siRNA transfected group): ~4 fold
- SRC frequency (Poisson distribution analysis) ([1]; siRNA transfected group, control 1/2439): 1/667
- number of SRCs ([1]; siRNA transfected group, control 410): 1478 SRCs in 1×10^6 cells
- human myeloid and B-cell chimerism ([1]; siRNA transfected, BM 4 months): significantly increased
- engraftment vs control group ([1]; siRNA transfected, PB at 2 and 4 months, BM at 4 months): enhanced engraftment
- CXCR4 protein level ([2]; HSCs (CD34+ CD38- CD45RA- CD49f+ CD90+)): notably upregulated
- CXCR4 protein level ([2]; human CB CD34+ cells): notably upregulated
- RNA level of CXCR4 [3]: significantly upregulated
- binding level of YTHDF2 and CXCR4 ([4]; YTHDF2 knockdown by siRNA): significantly decreased
- migration of CB CD34+ cells to SDF-1 ([5]; siRNA transfected cells): significant migration
- migration to SDF-1 in the HSC population ([6]; siRNA transfected cells, SDF-1 50 ng/mL): Enhanced migration
- expression level of m6A labelled CXCR4 ([7]; YTHDF2 knockdown by siRNA): greatly increased
- human CB CD34+ cell homing in NSG mice ([8]; siRNA transfected, 24 hours): enhanced
- YTHDF2 expression at the RNA and protein level [9]: efficiently downregulated

Substance: Angiotensin II [AGII, peptide hormone of the RAAS system]
- colony output vs vehicle [10]: no significant difference
- engraftment in NSG recipients vs control ([1]; AGII-treated cells, 10,000 cells, PB and BM): significantly increased
- human myeloid and lymphoid cell chimerism ([1]; AGII-treated cells, BM 4 months): increased
- SRC frequency (Poisson distribution analysis) ([1]; AGII-treated cells, control 1/3984): 1/1280
- number of SRCs ([1]; AGII-treated cells, control 251): 781 SRCs
- engraftment in secondary transplantation vs control ([1]; AGII-treated cells, secondary NSG mice at 4 months): enhanced engraftment
- protein level of CXCR4 ([2]; AGII-treated vs vehicle): upregulates
- binding between YTHDF2 and CXCR4 [4, 12]: decreased
- human CB CD34+ cell migration toward graded doses of SDF-1 ([5]; AGII-treated cells): greatly enhanced
- chemotaxis to SDF-1 of HSCs ([6]; AGII-treated cells): greatly enhanced
- FTO expression [11]: significantly upregulated
- relative m6A labeled CXCR4 level [7, 12]: decreased
- homing to mouse BM ([8]; 20 hours AGII treatment, 24 h after transplantation): dramatically promoted
